Test results taken from publication PMC11148078, “Potent activity of polymyxin B is associated with long-lived super-stoichiometric accumulation mediated by weak-affinity binding to lipid A” (Nature Communications, 2024).
“Also recorded” adds a separate entry of the source. Bridge positions count the residues as written; N and C are the ends. Square brackets hold non-standard residues; d marks the D form. Peptide text beside a SMILES is read from it. * marks the point of attachment. X1 = CC[C@H](C)CCCCC(=O)*; Dab = NCC[C@H](N)C(=O)O

Key:
[1] = system: wt-OMVs; experiment: TEM / cryo-EM of treated OMVs; design: species or system E. coli; conditions: ~0.5:1 compound to LPS
Description: OMVs were incubated in OMV buffer (as above) plus 0.0005% tween-80 and then polymyxin B, PMBN, or an equal volume of OMV buffer, added for a final ratio of 0.5:1 polymyxin B (or PMBN) to LPS for either 1 min or 40 min. The amount of LPS in the OMV preparations was determined using fluorescently labeled LPS as described. LPS was quantified by addition of 20 µL of 4 µM dansyl-polymyxin B to 20 µL of sample or dilution series of LPS in PBS with 0.004% tween-80 and 5 mM EDTA in a while polypropylene 384-well plate (Thermo-Fisher). The plate was incubated for 30 min at room-temperature before reading the fluorescence intensity on a plate reader (Ex 340 nm, Em 495 nm, cutoff 475 nm). Concentration was interpolated using a standard curve. Log-phase bacteria were diluted to OD600 of 0.25 in 3 mL of LB supplemented with tween-80 before addition of 1 µL of 1 µM polymyxin B or PMBN and incubated statically at 37 °C. Samples were fixed at times indicated by addition of equal volume of 2x Karnovsky fix and stored at 4 °C. The suspensions were then adsorbed to the surface of formvar and carbon-coated standard TEM grids (75 mesh) for 15 min at room temperature, quickly rinsed in ultrapure water. OMVs were stained twice for 60 s with 2% aqueous uranyl acetate and bacteria were stained with uranyl-less stain (ready-to-use solution from Electron Microscopy Sciences) twice for 60 s. Excess staining solution was blotted off and grids were air dried. Imaging was with JEOL JEM-1400 transmission electron microscope (TEM) operated at 80 kV using magnification form 5000x to 100,000x. At least 20 images were taken for each sample. […]
California USA, www.graphpad.com). […]
Wild-type and polymyxin-resistant OMVs (pmrAG53E) were incubated with polymyxin B, PMBN, or an equal volume of buffer, as described for TEM imaging at a final ratio of 0.5:1 polymyxin B (or PMBN) to LPS for 20 min. To prepare samples for cryo-EM, 4 μL of each condition was applied to holey gold grids (UltrAuFoil 25 nm R 1.2/1.3; Quantifoil) which had been glow discharged for 20 sec with a Solarus plasma cleaner (Gatan). […]

[2] = system: E. coli WT; assay type: cell-based
Description: (§1) Bacterial strains and plasmids are listed in SI Table S5. LB growth media was prepared according to manufacturer’s instructions and supplemented with 0.2% arabinose and carbenicillin (50 μg/mL) for the strains containing pBAD24-mcr1 plasmid. Cultures were started by inoculating 3 ml LB with 1–2 colonies from fresh overnight plates and grown at 37 °C until in log phase. Modified minimal inhibitory concentration (MIC) assays were performed in 96-well round bottom polystyrene plates (Corning) with a final volume of 100 µl in LB supplemented with tween-80 at 0.0005%. […] Polymyxin B sulfate (TCI Co. Ltd), polymyxin B nonapeptide (PMBN) (Sigma), and brevicidine (Genentech) were diluted directly in the assay plates. Bacteria were diluted in LB with tween-80 0.0005% and added to a final OD600 of 0.0005. Growth was measured via OD600 on a SpectraMax M5 plate reader after overnight static growth at 37 °C with humidity.

[3] = system: polymyxin B-resistant E. coli PmrA^G53E cells; experiment: Whole cell SPR, E. coli PmrA^G53E; assay type: binding
Description: Bacterial strains were grown in LB or LB with 0.2% arabinose and carbenicillin (50 μg/mL) to log phase (OD600 approximately 0.4–0.6), centrifuged for 10 min at 2500 × g (3500 rpm using a tabletop centrifuge), and re-suspended in PBS to a final OD600 of approximately 5. SPR on whole bacterial cells was performed and analyzed as described for OMVs on C1 chip, but with an additional carry-over wash prior to the capture. Regeneration of the chip after whole cell binding also required additional steps ([…] flow rate): (1) PBS supplemented with 32 mM MgCl2 for 120 s, (2) 2.5 M NaCl for 30 s, (3) 0.5% SDS (Desorb 1, Cytiva) for 60 s with carry over controls between.

[4] = system: S. aureus WT; assay type: cell-based
Description: as §1

CC(C)C[C@@H]1NC(=O)[C@@H](Cc2ccccc2)NC(=O)[C@H](CCN)NC(=O)[C@@H](NC(=O)[C@H](CCN)NC(=O)[C@@H](N)[C@@H](C)O)CCNC(=O)[C@H]([C@@H](C)O)NC(=O)[C@H](CCN)NC(=O)[C@H](CCN)NC1=O [PMBN] (H-T[Dab][Dab][Dab][dF]L[Dab][Dab]T; lactam 3-C)
effect on OMV morphology (words) [1]: less or no OMV clumping was observed
antibacterial activity [2]: lacks the antibacterial activity of polymyxin B
MIC ([2]; LB + 0.0005% tween-80, OD600 0.0005, overnight static growth 37 °C, complete growth inhibition): >40 µM

CC[C@H](C)CCCCC(=O)N[C@@H](CCN)C(=O)N[C@H](C(=O)N[C@@H](CCN)C(=O)N[C@H]1CCNC(=O)[C@H]([C@@H](C)O)NC(=O)[C@H](CCN)NC(=O)[C@H](CCN)NC(=O)[C@H](CC(C)C)NC(=O)[C@@H](Cc2ccccc2)NC(=O)[C@H](CCN)NC1=O)[C@@H](C)O [Polymyxin B] (X1-[Dab]T[Dab][Dab][Dab][dF]L[Dab][Dab]T; lactam 4-C (inferred); N-terminus assumed)
effect on OMV morphology (words) [1]: led to clumping
effect on OMV morphology (words) ([1]; listed as polymyxin B): exhibited vesiculation and tubules; also recorded: OMVs are perturbed by polymyxin B
SPR binding profile [3]: same polymyxin B binding profiles were observed
MIC ([4]; LB + 0.0005% tween-80, overnight 37 °C): >40 µM
antibacterial activity ([4]; highest tested concentration): no activity at the highest tested concentration
